# Assay results as given in patent US10626109B2, “N-hetaryl(thio)carbonyl-2-(benzocycloalken-1-yl)cyclamines and their use as fungicides” (BAYER CROPSCIENCE AKTIENGESELLSCHAFT, priority 2013, dated 2020).
# Marks after values point to notes of the source that are not given here.
# What was measured:
# Uromyces appendiculatus = assay: In vivo preventive test on Uromyces appendiculatus (bean rust); details: for protection: in words, at a dose of 500 and 100 ppm of active ingredient
# Experimental: [table] The active ingredients are made soluble and homogenized in a mixture of Dimethyl sulfoxide/Acetone//Tween® 80 and then diluted in water to the desired concentration. The young plants of bean are treated by spraying the active ingredient prepared as described above. Control plants are treated only with an aqueous solution of Acetone/Dimethyl sulfoxide/Tween® 80. After 24 hours, the plants are contaminated by spraying the leaves with an aqueous suspension of Uromyces appendiculatus spores. The contaminated bean plants are incubated for 24 hours at 20° C. and at 100% relative humidity and then for 10 days at 20° C. and at 70-80% relative humidity. The test is evaluated 11 days after the inoculation. 0% means an efficacy which corresponds to that of the control plants while an efficacy of 100% means that no disease is observed.
# Puccinia recondita = assay: In vivo preventive test on Puccinia recondita (brown rust on wheat); details: for Efficacy: Table C2; for protection: in words, at a dose of 500 and 100 ppm of active ingredient, analogues 11 and 13 in very similar conditions
# Experimental: [table] […] The young plants of wheat are treated by spraying the active ingredient prepared as described above. […] After 24 hours, the plants are contaminated by spraying the leaves with an aqueous suspension of Puccinia recondita spores. The contaminated wheat plants are incubated for 24 hours at 20° C. and at 100% relative humidity and then for 10 days at 20° C. and at 70-80% relative humidity. The test is evaluated 11 days after the inoculation. 0% means an efficacy which corresponds to that of the control plants while an efficacy of 100% means that no disease is observed.
# Sphaerotheca fuliginea = assay: In vivo preventive test on Sphaerotheca fuliginea (powdery mildew on cucurbits); details: for Efficacy: Table F1; for protection: in words, at a dose of 500 and 100 ppm of active ingredient, analogue 13 in very similar conditions
# Experimental: [table] […] The young plants of gherkin are treated by spraying the active ingredient prepared as described above. […] After 24 hours, the plants are contaminated by spraying the leaves with an aqueous suspension of Sphaerotheca fuliginea spores. The contaminated gherkin plants are incubated for 72 hours at 18° C. and at 100% relative humidity and then for 12 days at 20° C. and at 70-80% relative humidity. The test is evaluated 15 days after the inoculation. 0% means an efficacy which corresponds to that of the control plants while an efficacy of 100% means that no disease is observed.
# [1] = log P by HPLC on reversed-phase column (C 18), EEC Directive 79/831 Annex V.A8; assay type: physicochemical; details: Table 1, HPLC, 0.1% aqueous formic acid and acetonitrile, 40° C.
# Experimental: In table 1, the log P values were determined in accordance with EEC Directive 79/831 Annex V.A8 by HPLC (High Performance Liquid Chromatography) on a reversed-phase column (C 18), using the method described below: Temperature: 40° C.; Mobile phases: 0.1% aqueous formic acid and acetonitrile; linear gradient from 10% acetonitrile to 90% acetonitrile. Calibration was carried out using unbranched alkan-2-ones (comprising 3 to 16 carbon atoms) with known log P values (determination of the log P values by the retention times using linear interpolation between two successive alkanones). lambda-max-values were determined using UV-spectra from 200 nm to 400 nm and the peak values of the chromatographic signals. In table 2, M+H (Apcl+) and log P are defined as for table 1.
# [2] = second value of a mixture of two diastereoisomers
# [3] = single value, or first value of a mixture of two diastereoisomers
# [4] = dose 100 ppm, formulated in DMF with 2% of alkylarylpolyglycolether
# [5] = dose 500 ppm, formulated in DMF with 2% of alkylarylpolyglycolether
SMILES,"Efficacy (Uromyces appendiculatus; Table G1, dose 100 ppm) [%]","Efficacy (Uromyces appendiculatus; Table G1, dose 500 ppm) [%]","Efficacy (Uromyces appendiculatus; Table G2, dose 100 ppm) [%]","Efficacy (Uromyces appendiculatus; Table G2, dose 500 ppm) [%]",protection (Uromyces appendiculatus),protection (Uromyces appendiculatus; listed as 1.26),"Efficacy (Puccinia recondita; dose 100 ppm, wheat) [%]","Efficacy (Puccinia recondita; dose 500 ppm, wheat) [%]",protection (Puccinia recondita; wheat),"Efficacy (Sphaerotheca fuliginea; dose 100 ppm, gherkin) [%]","Efficacy (Sphaerotheca fuliginea; dose 500 ppm, gherkin) [%]",protection (Sphaerotheca fuliginea; gherkin),"logP [1, 2]","logP [1, 3]",Efficacy (Puccinia recondita; [4]),Efficacy (Puccinia recondita; [5]),Efficacy (Sphaerotheca fuliginea; [4]),Efficacy (Sphaerotheca fuliginea; [5])
Cn1nc(C(F)F)c(C(=O)N2CCCC2C2CCCc3ccccc32)c1F (mixture of isomers) [I.26],100,100,100,100,total protection,total to average (at least 50%) protection,88,98,excellent (at least 90%) to high (at least 80%) protection,100,100,total protection,3.61,3.48,,,,
Cn1cc(C(=O)N2CCCC2C2CCCc3ccccc32)c(C(F)F)n1 (mixture of isomers) [I.27],,,56,100,total to average (at least 50%) protection,,,,,,,,3.21,2.94,,,,
"CC(CN(C(=O)c1c(C(F)F)nn(C)c1F)C1CC1)c1ccccc1 (stereo not shown) [13 from WO-2011/151369, N-cyclopropyl-3-(difluoromethyl)-5-fluoro-1-methyl-N-(2-phenylpropyl)-1H-pyrazole-4-carboxamide, reference compound]",,,,,,,,,poor (less than 40%) to no protection,,,average (at least 60%) to poor (less than 10%) protection,,,10 ^(a) %,40 ^(a) %,3 ^(a) %,63 ^(a) %
"Cc1nn(C)c(F)c1C(=O)N(C1CC1)C(C)C1CCCc2ccccc21 (stereo not shown) [I.2 from WO-2010/086311, N-cyclopropyl-5-fluoro-1,3-dimethyl-N-[1-(1,2,3,4-tetrahydronaphthalen-1-yl)ethyl]-1H-pyrazole-4-carboxamide, reference compound]",,,0,88,high (at least 80%) to no protection,,,,,,,,,,,,,
